# Measured values as given in US20140057895A1, “INDAZOLE- AND PYRROLOPYRIDINE-DERIVATIVE AND PHARMACEUTICAL USE THEREOF” (priority 2011, published 2014).
# Marks after values point to notes of the source that are not given here.
# Key:
# human 5-HT4b receptor = target: T1, human 5-HT4b receptor (Homo sapiens, UniProt Q13639); test: Test Example 2: Serotonin 4 (5-HT4) receptor agonist activity assay, cAMP HTRF in CHO cells (Table 97); format: cell-based; conditions: cAMP in CHO cells expressing human 5-HT4b receptor, mean value; for Emax: 0.25 h, intrinsic activity, maximal activity of 5-HT defined as 100%, read-out: IA (%); for EC50: concentration showing 50% of IA
# T1 construct: expressed in transfected cells; host or cells: CHO cells (G418 selection)
# T1 sequence (Q13639 whole entry): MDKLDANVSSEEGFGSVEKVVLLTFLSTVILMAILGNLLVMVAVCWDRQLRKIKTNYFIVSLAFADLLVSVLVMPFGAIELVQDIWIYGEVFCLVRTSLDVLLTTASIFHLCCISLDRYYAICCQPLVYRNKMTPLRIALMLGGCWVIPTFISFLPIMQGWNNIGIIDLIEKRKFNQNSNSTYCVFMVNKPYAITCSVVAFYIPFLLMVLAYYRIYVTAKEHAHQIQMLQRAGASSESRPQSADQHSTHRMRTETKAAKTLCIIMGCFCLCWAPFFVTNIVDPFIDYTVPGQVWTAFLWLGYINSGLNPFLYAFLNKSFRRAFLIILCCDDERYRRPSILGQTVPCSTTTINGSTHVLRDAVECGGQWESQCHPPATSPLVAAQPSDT
# [1] = tested on: scopolamine and MK801-induced cognitive impairment; test: Example 5: Y-maze test, scopolamine and MK801-induced deficits, co-administration with donepezil (Table 102); format: in vivo, ddY mouse
# Source text: Thus, scopolamine-induced cognitive impairment model, one of the AD-like model, has been used to predict pharmacodynamic signals of putative procognitive compounds, utilizing the acetylcholinesterase inhibitor donepezil for illustration (See, Citations 1 and 2). The present inventors investigated the effect of each compound on reversal of scopolamine-induced deficits in performance of Y-maze test in mice, and they also investigated adjunctive effect of compounds with donepezil on reversal of deficits induced by scopolamine and MK801 in mice.
# Used animal: ddY mouse (SLC)
# In the experiments, the mice were grouped in the same way using Stat Preclinica (Version 1.03295; Takumi Information Technology Inc.). The selected mice were divided into 5 to 7 groups of 7 to 12 mice using the “completely randomization design by the single variable” program (Analytical program version 1.0.7), with body weight on the testing day. After grouping, p values for Bartlett's test and ANOVA across all groups were greater than 0.2, indicating no significant difference in this parameter among the groups.
# The required amount of each compound was weighed and put into a glass homogenizer. The required amount of 0.5% MC (methyl cellulose) solution was added, and each compound was suspended to give a 10 mg/kg dosing suspension.
# The required amount of donepezil was weighed and put into a glass homogenizer. The required amount of 0.5% MC solution was added, and donepezil was suspended to give a suspension at concentration of 1 mg/mL (10 mg/kg dosing suspension).
# The required amount of scopolamine and MK801 were weighed, and saline was added to it to give 0.3 mg/mL and 0.015 mg/mL solution, respectively.
# 90 Min before the test, the mice were orally administered each compound, donepezil, and vehicle (0.5% methyl cellulose, 10 mL/kg). After 60 min, memory impairment was induced by administering scopolamine (0.6 mg/kg, s.c.) with (co-administration) or without (mono-administration) MK801 (0.03 mg/kg, s.c.). The control group received saline (2 mL/kg, s.c.) rather than scopolamine and MK801.
# The Y-maze used herein is a three-arm maze with equal angles between all arms. The mazefloor and walls were constructed from black acrylic resin. The mice were initially placed within one arm, and the sequence and number of arm entries were recorded manually for each mouse over an 8-min period.
# Data were processed and analyzed with Microsoft® Office Excel 2003. The alternation behavior was defined as entries into all three arms on consecutive occasions. The percent alternation behavior in each animal was calculated using the following formula, and rounded to one decimal place.
# Alternation behavior(%)=[actual alternation/(total arm entries−2)]×100
# Restoration ratio of alternation behavior (%) in each animal was calculated using the following formula, and rounded to one decimal place.
# Restoration ratio of alternation behavior in each animal (%)=y Alternation behavior in each animal (%)=x Mean of alternation behavior in vehicle-treated group (group No. 1) (%)=A Mean of alternation behavior in scopolamine-treated group (group No. 2) (%)=B
# Data were expressed as the mean of the percent alternation behavior, the number of total arm entries and the restoration ratio of alternation behavior.
# Values of Y-maze tests are expressed as mean of alternation behavior (n=7−12).
# Alternation behaviors in the scopolamine-treated groups were compared to those in the control groups using Wilcoxon rank sum test (Stat preclinical; Version 1.03295; Takumi Information Technology Inc.) with a two-sided significance level of 0.05.
# Restoration of alternation behavior was analyzed using Stat Preclinica. Alternation behaviors in the Donepezil (10 mg/kg, p.o.)-treated group were compared to those in the co-administrated groups of test compounds with donepezil (10 mg/kg, p.o.) using non-parametric Dunnett multiple comparison test (Analytical program version 1.0.2) with a two-sided significance level of 0.05.
# [2] = compound 0.1 mg/kg, p.o. co-administered with Donepezil 10 mg/kg, p.o.
SMILES,Emax (human 5-HT4b receptor) [%],EC50 (human 5-HT4b receptor) [nM],"Alternation behavior (%) ([1]; compound 0.03 mg/kg, p.o. alone)","Alternation behavior (%) ([1]; compound 0.03 mg/kg, p.o. co-administered with Donepezil 10 mg/kg, p.o.)","Alternation behavior (%) ([1]; compound 0.1 mg/kg, p.o. alone)","Alternation behavior (%) [1, 2]","Alternation behavior (%) ([1]; compound 0.3 mg/kg, p.o. alone)","Alternation behavior (%) ([1]; compound 0.3 mg/kg, p.o. co-administered with Donepezil 10 mg/kg, p.o.)"
"CC(=O)N1CCC(N2CCC(c3nc(-n4nc(C(C)C)c5cccc(F)c54)no3)CC2)CC1.Cl [Example 232, 1-(4-{3-[7-fluoro-3-(propan-2-yl)-1H-indazol-1-yl]-1,2,4-oxadiazol-5-yl}-1,4′-bipiperidin-1′-yl)ethanone hydrochloride]",95,2.6,46.7,48.5,48.0^# %,62.4^$ %,–,–
"CC(C)c1nn(-c2noc(C3CCN(C4CCN(C(=O)CO)CC4)CC3)n2)c2c(F)cccc12 [Example 242, 1-(4-{3-[7-fluoro-3-(propan-2-yl)-1H-indazol-1-yl]-1,2,4-oxadiazol-5-yl}-1,4′-bipiperidin-1′-yl)-2-hydroxyethanone]",88,2.2,–,–,51.2^# %,58.6^$ %,57.4^# %,62.5^$ %
